Assay results taken from PubChem BioAssay AID1996.
≈ marks a conversion by molar mass, not a printed value.

Conditions: buffer; pH 7.4; 200.0 µM

| SMILES | solubility kinetic [µg/mL] |
| --- | --- |
| COc1cccc(NC(=O)COC(=O)c2ccc3ccccc3n2)c1 | 43.4 (≈ 129 µM) |
| CC(=O)c1c[nH]c(C(=O)NCc2cccc(C(F)(F)F)c2)c1 | 2.2 (≈ 7.09 µM) |
| CCc1cccc(C)c1NC(=O)C1CC(=O)N(C2CCCC2)C1 (stereo not given) | > 47.2 |
| N#C/C(=C(/O)c1ccco1)c1nc2ccccc2s1 | > 40.2 |
| Oc1cccc2ccc(/C=C/c3ccccc3Br)nc12 | < 0.7 |
| CC(C)(C)Nc1c(-c2ccc(O)cc2)nc2ccc(Cl)cn12 | 0.4 (≈ 1.27 µM) |
| CC(C)n1c(CN(C)Cc2ccccc2)nc2c1c(=O)n(C)c(=O)n2C | 23.8 (≈ 67 µM) |
| CN(CCO)c1nc(N)c2c(N)nc3c(c2c1C#N)CC(=O)N3C1CCCC1 | 10.7 (≈ 28.1 µM) |
| Cc1nc(SCc2c(Cl)cccc2Cl)nc(OC(=O)N(C)C)c1C | 2.2 (≈ 5.69 µM) |
| O=C(c1cccc(C(F)(F)F)c1)N1CCc2c([nH]c3ccccc23)C1C(F)(F)F (stereo not given) | < 0.4 |
| Cc1ccc(NC(=O)CN2C(=O)NC3(CCCc4ccccc43)C2=O)c([N+](=O)[O-])c1 (stereo not given) | 36.5 (≈ 89.4 µM) |
| CSC1=NCCN1C(=O)c1ccc(C)cc1 | > 35.1 |
| CCc1ccc(OCC2Cn3c(nc4c3c(=O)[nH]c(=O)n4C)O2)cc1 (stereo not given) | 3.8 (≈ 11.1 µM) |
| CN(C)c1nc(N)c([N+](=O)[O-])c(NCC2CCCO2)n1 (stereo not given) | 40.5 (≈ 143 µM) |
| CCc1ccc(OC)c(S(=O)(=O)NCc2cccs2)c1 | > 46.7 |
| CCn1c(=S)[nH]c2cc(Cl)ccc21 | > 31.9 |
| CC(C)CC1CCCCC1OC(=O)CN1CCCCC1 (stereo not given) | 3.7 (≈ 13.1 µM) |
| O=C1NCCSC1c1ccccc1 (stereo not given) | > 29 |
| C=CCSc1nsc(NC(=O)Nc2ccc(F)cc2)n1 | 1.2 (≈ 3.87 µM) |
| COc1ccc(C(=O)N2CCCN(C)CC2)c(OC)c1 | 36.5 (≈ 131 µM) |

| SMILES | solubility kinetic [µg/mL] |
| --- | --- |
| O=C(COC(=O)/C=C/c1cccc(F)c1)NC1CC1 | > 39.5 |
| CC(C)(C)n1cnnc1Sc1ccc([N+](=O)[O-])cn1 | > 41.9 |
| COc1ccc(/C=C/C(=O)N2CC(C)OC(C)C2)cc1OC (stereo not given) | 45.4 (≈ 149 µM) |
| CCc1ccc(S(=O)(=O)Nc2ccc(N3CCN(C)CC3)cc2)cc1 | 50.8 (≈ 141 µM) |
| O=C(/C=C/c1ccccc1)OCc1cncs1 | 32.2 (≈ 131 µM) |
| O=C(Nc1ccccc1)/C(=C1\CCCN1)[N+](=O)[O-] | 29.6 (≈ 120 µM) |
| COc1ccc(C(=O)c2oc3ccc(OC)cc3c2NC(C)=O)cc1 | < 0.7 |
| COc1ccc(COC(=O)C2=C(C)NC(=O)NC2c2ccc(F)cc2)cc1 (stereo not given) | 3 (≈ 8.1 µM) |
| CN1CCN(c2ccccc2NC(=O)c2cccs2)CC1 | > 45.2 |
| O=C(Cc1ccc(Cl)cc1)NC1CCS(=O)(=O)C1 (stereo not given) | > 43.2 |
| O=C(O)c1cc(Cl)c(Cl)cc1C(=O)NCc1ccco1 | > 47.1 |
| CCCCCN1C(C)=CC(=C(C#N)C#N)C=C1C | 3.3 (≈ 13.7 µM) |
| C[N+]1(C)[C@@H]2CC[C@H]1CC(OC(=O)C(CO)c1ccccc1)C2.O=[N+]([O-])[O-] (stereo not given in full) | > 55 |
| CN1CCC(N(C)C(=O)c2ccccc2F)CC1.Cl | 42.9 |
| CCCCn1c(N)c(N(CCOC)C(=O)c2ccc3c(c2)C(=O)N(c2ccccc2Cl)C3=O)c(=O)[nH]c1=O | > 81 |
| CC(=O)NC12CC3CC(C1)CC(C(=O)OCC(=O)c1cc(C)n(C)c1C)(C3)C2 | 49.5 (≈ 128 µM) |
| FC(F)(F)c1ccccc1CNCc1ccc2c(c1)OCO2 | 25.8 (≈ 83.4 µM) |
| CN1C(=O)c2ccc(C(=O)Nc3ccc4c(c3)OCO4)cc2C1=O | 0.7 (≈ 2.16 µM) |
| CCOC(=O)c1c(C)oc2c1c(C=NCC1CCCO1)c(O)c1ccccc12 (stereo not given) | < 0.8 |
| O=CN1CCN(C(=O)c2cccc3c2-c2ccccc2C3=O)CC1 | > 48.1 |

| SMILES | solubility kinetic [µg/mL] |
| --- | --- |
| COc1cccc(NC(=S)N2CCc3cc(OC)c(OC)cc3C2)c1 | 4.9 (≈ 13.7 µM) |
| O=[N+]([O-])c1ccc(Oc2ncccn2)cc1 | 28.4 (≈ 131 µM) |
| COC(=O)c1ccc(OC(=O)c2ccncc2)cc1O | > 41 |
| OCCCN=C1CCCc2c1[nH]c1ccc(Cl)cc21 | 14.4 (≈ 52 µM) |
| COc1ccccc1NC(=O)c1ccccc1Nc1ccccc1 | 0.5 (≈ 1.57 µM) |
| Cl.Fc1ccc(Nc2ncnc3ccccc23)cc1 | 36.8 |
| CCCn1ccc(O)c(Cc2ccc(Cl)cc2)c1=O | 7.3 (≈ 26.3 µM) |
| NC(=O)C1CCN(C(=O)Nc2csc3ccccc23)CC1 | 42 (≈ 138 µM) |
| Cc1ccc(-c2cc(-c3ccco3)c(C#N)c(=O)[nH]2)cc1 | 2.6 (≈ 9.41 µM) |
| Cc1cc(S(=O)(=O)Nc2noc3ccccc23)ccc1F | 41.2 (≈ 135 µM) |
| Cc1ccc(-n2c(C)c(C)c3c(NCCO)ncnc32)cc1 | > 44.5 |
| Nc1ccc(C(=O)CC(=O)Nc2ccc(Cl)cc2)cc1 | 14.3 (≈ 49.5 µM) |
| COc1c(C(=O)Nc2nccs2)ccc2ccccc12 | 17 (≈ 59.8 µM) |
| Cc1ccc(-c2noc(=O)n2CC(=O)c2ccc(Cl)cc2)cc1 | < 0.4 |
| CN(Cc1ccccc1)C(=O)COC(=O)COc1ccc(C#N)cc1 | > 50.8 |
| COc1ccc(C2c3c(nc[nH]c3=O)Oc3nc[nH]c(=O)c32)cc1 | > 48.6 |
| CCc1nc2cc3sc(CC)nc3cc2s1 | 0.6 (≈ 2.42 µM) |
| COc1ccc2c(c1)C=C(CN1CCN(C(C)C)C(CCO)C1)CO2 (stereo not given) | 34.5 (≈ 99.6 µM) |
| CCOC(=O)c1c(N=CN(C)C)c2cc([N+](=O)[O-])cnc2n1C | 35 (≈ 110 µM) |
| CCCCN1C(C(=O)Nc2cc(C)on2)=C(O)c2ccccc2S1(=O)=O | > 56.6 |
